Eight compounds from ChEMBL document CHEMBL1201862, “PubChem BioAssay data set” (2004) can be followed below.

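Step 1: Grow cells in 96-well plates. Step 2: Expose to compound for 48 hours at 5 concentrations. Step 3: Interpolate endpoints linearly; if unreached, use highest concentration. GI50 is the concentration that inhibits growth by half.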 Calls of active or inactive are those of the source. Rule as the data show it: active = GI50 up to about 1.1 µM and inactive = higher. Some results are limits rather than exact numbers.

Holding throughout (assay): growth of human tumour cells (NCI), 48 h
The subject of assay [1] is SK-MEL-28.
Assay [2] has as its system SW-620.
In assay [3] the test system is SNB-19.
For assay [4], the system named is KM12.
In assay [5] the test system is HCT-116.
In assay [6] the test system is T47D.
Assay [7] has as its system HT-29.
Assay [8] has as its system NCI/ADR-RES.
The subject of assay [9] is ACHN.
The subject of assay [10] is MDA-MB-231.
For assay [11], the system named is A498.
For assay [12], the system named is 786-0.
Assay [13] concerns U-251.
Assay [14] relates to IGROV-1.
For assay [15], the system named is OVCAR-3.
In assay [16] the test system is SN12C.
The subject of assay [17] is NCI-H460.
In assay [18] the test system is EKVX.
For assay [19], the system named is OVCAR-4.

Regarding `CN(C)CCNC(=O)Cn1cc([N+](=O)[O-])c(=O)c2ccccc21`, the GI50 in [1], in assay [2], in assay [3], in assay [4], in assay [5] and in assay [6] was > 100 µM (inactive) throughout. Also, the GI50 in [7], in assay [8], in assay [9], in assay [10], in [11] and in [12] was > 100 µM (inactive) each time. In addition, the GI50 in assay [13], in [14], in assay [15], in assay [16] and in assay [17] was > 100 µM (inactive) in each case.

Take `C#CCOCn1cc(C)c(=O)[nH]c1=O`: the GI50 in assay [1], in [2], in [3], in assay [18], in assay [4] and in assay [5] was > 100 µM (inactive) each time. Besides, the GI50 in assay [6], in assay [7], in [8], in assay [9], in assay [10] and in assay [11] was > 100 µM (inactive) in each case. In addition, the GI50 in [12], in assay [13], in [14], in [16] and in assay [17] was > 100 µM (inactive) throughout.

For the compound `Cc1cc2ccccc2n1CC(=O)N1CCCC1`, the GI50 in assay [1], in assay [2], in assay [3], in assay [18], in [4] and in assay [5] was > 100 µM (inactive) in each case. The GI50 in [6], in assay [7], in [8], in assay [9], in assay [10] and in [12] was > 100 µM (inactive) in each case. Besides, the GI50 in assay [13], in [19], in assay [14], in [15], in assay [16] and in assay [17] was > 100 µM (inactive) throughout.

Turning to `Cc1c2ccccc2cc2nc3ccccc3n12`, the GI50 in assay [1], in [2], in [3], in [18], in assay [4] and in assay [5] was > 10 µM (inactive) in each case. Moreover, the GI50 in assay [6], in assay [7], in [8], in [9], in assay [10] and in [12] was > 10 µM (inactive) in each case. The GI50 in assay [13], in assay [19], in assay [14], in [15], in [16] and in assay [17] was > 10 µM (inactive) throughout.

As to `CCN(CCN(CC)C(=O)NC)C(=O)NC`, the GI50 in [1], in assay [2], in assay [3], in [18], in [5] and in [6] was > 100 µM (inactive) throughout. Also, the GI50 in [7], in assay [8], in assay [9], in [10], in [11] and in assay [12] was > 100 µM (inactive) throughout. The GI50 in assay [13], in assay [14], in assay [16] and in assay [17] was > 100 µM (inactive) each time.

For `COc1ccc(NC(=O)NNS(=O)(=O)c2ccc(C)cc2)cc1`, the GI50 was > 100 µM (inactive) in [1]; > 100 µM (inactive) in [2]; > 100 µM (inactive) in assay [3]; > 100 µM (inactive) in assay [18]; 91.6 µM (inactive) in assay [4]; > 100 µM (inactive) in [5]. The GI50 was > 100 µM (inactive) in [6]; > 100 µM (inactive) in assay [7]; > 100 µM (inactive) in assay [8]; 91.6 µM (inactive) in assay [9]; > 100 µM (inactive) in [10]; > 100 µM (inactive) in assay [11]. The GI50 in [12] was 0.792 µM (active); in assay [13] it was > 100 µM (inactive); in assay [19], 25.1 µM (inactive); in [14], > 100 µM (inactive); in assay [16] it was > 100 µM (inactive); in assay [17], > 100 µM (inactive).

As to `Sc1nn2c(Cc3ccccc3)nnc2s1`, the GI50 in assay [1], in assay [2], in assay [3], in assay [18], in assay [4] and in assay [5] was > 100 µM (inactive) in each case. The GI50 in assay [6], in assay [7], in [8], in assay [9], in assay [10] and in assay [12] was > 100 µM (inactive) throughout. For the same compound, the GI50 in assay [13], in [19], in [14], in [15], in assay [16] and in assay [17] was > 100 µM (inactive) throughout.

`O=c1c(O)c(-c2ccc(O)cc2O)oc2cc(O)cc(O)c12` [MORIN]: the GI50 in assay [1] is > 100 µM (inactive); in [2], > 100 µM (inactive); in assay [3] it was > 100 µM (inactive); in assay [18], 30.3 µM (inactive); in [4], > 100 µM (inactive); in [5], 86.1 µM (inactive). In addition, the GI50 in [6], in [7], in assay [8], in assay [9], in [10] and in [12] was > 100 µM (inactive) in each case. For the same compound, the GI50 in assay [13], in [19], in [14], in assay [15], in [16] and in [17] was > 100 µM (inactive) each time.
